In brackets after ≈: the same amount, converted by molar mass. Each block holds one compound with its values, some of them ahead of it.
Key:
E. coli DNA gyrase = E. coli DNA gyrase (Escherichia coli, UniProt P0AES6); experiment: DNA gyrase supercoiling plate assay; format: biochemical; conditions: for IC50: IC50 E. coli gyrase, supercoiling assay; for remaining activity at 1 µM / remaining activity at 0.1 µM: read-out: RA (residual activity) E. coli gyrase
E. coli topoisomerase IV = E. coli topoisomerase IV (Escherichia coli, UniProt P20083); experiment: topoisomerase IV relaxation plate assay; format: biochemical
Chain of E. coli topoisomerase IV (P20083 whole entry): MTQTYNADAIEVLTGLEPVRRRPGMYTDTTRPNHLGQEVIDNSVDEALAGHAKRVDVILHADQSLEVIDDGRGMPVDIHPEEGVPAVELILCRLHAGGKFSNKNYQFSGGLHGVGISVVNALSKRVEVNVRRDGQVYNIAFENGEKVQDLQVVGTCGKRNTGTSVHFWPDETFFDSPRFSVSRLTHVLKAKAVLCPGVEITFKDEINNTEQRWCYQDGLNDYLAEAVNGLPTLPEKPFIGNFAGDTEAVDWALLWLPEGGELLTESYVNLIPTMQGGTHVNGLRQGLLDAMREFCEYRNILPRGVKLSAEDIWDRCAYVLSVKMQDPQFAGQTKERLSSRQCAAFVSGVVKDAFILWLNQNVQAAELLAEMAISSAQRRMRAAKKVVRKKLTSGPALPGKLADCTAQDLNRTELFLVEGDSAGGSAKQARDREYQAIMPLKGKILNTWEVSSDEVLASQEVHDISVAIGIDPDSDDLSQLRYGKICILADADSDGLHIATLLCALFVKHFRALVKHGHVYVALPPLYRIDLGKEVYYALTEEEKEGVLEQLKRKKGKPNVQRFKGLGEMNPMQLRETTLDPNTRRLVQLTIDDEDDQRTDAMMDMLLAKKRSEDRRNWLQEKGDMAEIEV
Chain of E. coli topoisomerase IV (P0AFI2 whole entry partner): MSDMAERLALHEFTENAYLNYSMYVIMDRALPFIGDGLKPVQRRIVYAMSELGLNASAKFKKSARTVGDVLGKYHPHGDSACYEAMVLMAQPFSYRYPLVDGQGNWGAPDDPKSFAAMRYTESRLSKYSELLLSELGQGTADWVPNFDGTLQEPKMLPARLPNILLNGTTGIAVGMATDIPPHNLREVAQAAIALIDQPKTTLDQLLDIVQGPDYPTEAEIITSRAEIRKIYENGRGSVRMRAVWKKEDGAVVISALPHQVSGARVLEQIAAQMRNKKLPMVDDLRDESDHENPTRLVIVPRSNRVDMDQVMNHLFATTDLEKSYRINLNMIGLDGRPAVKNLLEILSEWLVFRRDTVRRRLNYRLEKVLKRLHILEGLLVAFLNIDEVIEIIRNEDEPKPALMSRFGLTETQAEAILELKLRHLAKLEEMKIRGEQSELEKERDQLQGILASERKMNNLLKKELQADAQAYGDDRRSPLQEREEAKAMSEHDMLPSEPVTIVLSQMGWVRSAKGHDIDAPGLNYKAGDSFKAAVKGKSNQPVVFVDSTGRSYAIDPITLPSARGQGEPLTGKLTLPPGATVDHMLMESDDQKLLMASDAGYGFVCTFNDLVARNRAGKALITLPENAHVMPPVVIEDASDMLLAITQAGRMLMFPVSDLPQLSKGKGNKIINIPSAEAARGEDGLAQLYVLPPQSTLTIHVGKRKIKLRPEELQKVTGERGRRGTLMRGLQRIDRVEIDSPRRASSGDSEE

[1] = biological target: human DNA topoisomerase IIα (Homo sapiens, UniProt P11388); experiment: human DNA topoisomerase IIα inhibition; format: biochemical; conditions: read-out: RA (residual activity) Human topo IIα
Chain of human DNA topoisomerase IIα (P11388 whole entry): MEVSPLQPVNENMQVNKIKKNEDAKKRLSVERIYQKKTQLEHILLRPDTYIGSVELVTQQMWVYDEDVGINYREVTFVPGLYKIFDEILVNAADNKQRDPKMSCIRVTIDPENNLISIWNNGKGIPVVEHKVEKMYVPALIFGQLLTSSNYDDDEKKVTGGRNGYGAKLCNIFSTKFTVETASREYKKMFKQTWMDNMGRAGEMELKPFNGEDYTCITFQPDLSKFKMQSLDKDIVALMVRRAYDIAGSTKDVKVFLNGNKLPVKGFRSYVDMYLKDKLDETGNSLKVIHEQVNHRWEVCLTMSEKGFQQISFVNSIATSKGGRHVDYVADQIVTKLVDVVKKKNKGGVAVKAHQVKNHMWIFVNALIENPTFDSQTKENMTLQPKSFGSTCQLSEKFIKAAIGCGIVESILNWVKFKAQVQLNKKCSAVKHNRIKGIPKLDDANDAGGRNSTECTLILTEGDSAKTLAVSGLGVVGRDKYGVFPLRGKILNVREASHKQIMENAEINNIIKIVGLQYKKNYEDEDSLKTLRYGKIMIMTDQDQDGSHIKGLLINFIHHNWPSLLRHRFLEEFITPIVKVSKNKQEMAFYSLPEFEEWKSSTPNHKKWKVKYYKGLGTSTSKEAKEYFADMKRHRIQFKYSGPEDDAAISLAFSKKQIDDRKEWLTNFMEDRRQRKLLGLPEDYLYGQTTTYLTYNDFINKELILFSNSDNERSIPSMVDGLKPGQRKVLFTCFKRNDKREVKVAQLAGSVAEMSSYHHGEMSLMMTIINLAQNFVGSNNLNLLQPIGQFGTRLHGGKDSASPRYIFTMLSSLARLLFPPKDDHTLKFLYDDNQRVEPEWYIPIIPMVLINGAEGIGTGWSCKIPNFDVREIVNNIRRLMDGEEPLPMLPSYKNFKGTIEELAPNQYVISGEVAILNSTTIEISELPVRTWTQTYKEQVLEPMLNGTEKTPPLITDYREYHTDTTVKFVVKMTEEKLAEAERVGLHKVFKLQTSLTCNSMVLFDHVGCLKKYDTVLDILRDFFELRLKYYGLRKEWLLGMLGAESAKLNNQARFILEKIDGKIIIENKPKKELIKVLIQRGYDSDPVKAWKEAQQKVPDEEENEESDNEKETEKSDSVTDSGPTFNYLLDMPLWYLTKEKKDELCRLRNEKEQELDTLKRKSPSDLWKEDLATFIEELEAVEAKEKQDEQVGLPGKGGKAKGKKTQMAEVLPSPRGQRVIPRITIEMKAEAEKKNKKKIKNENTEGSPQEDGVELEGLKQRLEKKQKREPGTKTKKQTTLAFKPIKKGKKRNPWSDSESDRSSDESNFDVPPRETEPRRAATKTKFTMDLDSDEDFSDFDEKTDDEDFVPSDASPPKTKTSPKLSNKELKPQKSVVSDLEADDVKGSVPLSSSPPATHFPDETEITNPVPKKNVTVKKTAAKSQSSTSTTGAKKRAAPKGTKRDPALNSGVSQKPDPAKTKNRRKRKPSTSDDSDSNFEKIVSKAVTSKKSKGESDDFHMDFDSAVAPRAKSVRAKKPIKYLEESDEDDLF

S. aureus ATCC 29213 = experiment: MIC, broth microdilution; format: cell-based, Staphylococcus aureus; conditions: Staphylococcus aureus, ATCC29213, read-out: MIC S. aureus ATCC 29213, broth microdilution
P. aeruginosa ATCC 27853 = experiment: MIC, broth microdilution; format: cell-based; conditions: Pseudomonas aeruginosa, ATCC27853, read-out: MIC P. aeruginosa ATCC 27853
A. baumannii ATCC 19606 = experiment: MIC, broth microdilution; format: cell-based; conditions: Acinetobacter baumannii, ATCC19606, read-out: MIC A. baumannii ATCC 19606
K. aerogenes ATCC 13408 = experiment: MIC, broth microdilution; format: cell-based; conditions: Klebsiella aerogenes, ATCC13408, read-out: MIC K. aerogenes ATCC 13408
E. coli ATCC 25922 = experiment: MIC, broth microdilution; format: cell-based; conditions: Escherichia coli, ATCC25922, read-out: MIC E. coli ATCC 25922
[2] = system: K. pneumoniae ATCC 700603; experiment: MIC, broth microdilution; format: cell-based; conditions: Klebsiella pneumoniae, ATCC700603, read-out: MIC K. pneumoniae ATCC 700603
[3] = system: S. aureus ATCC 700699 (VISA); experiment: MIC, broth microdilution; format: cell-based; conditions: Staphylococcus aureus, ATCC700699|VISA, read-out: MIC S. aureus ATCC 700699 (VISA)
[4] = system: S. aureus ATCC 43300 (MRSA); experiment: MIC, broth microdilution; format: cell-based; conditions: Staphylococcus aureus, ATCC43300|MRSA, read-out: MIC S. aureus ATCC 43300 (MRSA)
[5] = system: E. spp. cloacae ATCC 13047; experiment: MIC, broth microdilution; format: cell-based; conditions: read-out: MIC E. spp. cloacae ATCC 13047
A. baumannii ATCC 17978 = experiment: MIC, broth microdilution; format: cell-based; conditions: Acinetobacter baumannii, ATCC17978, read-out: MIC A. baumannii ATCC 17978
K. pneumoniae ATCC 10031 = experiment: MIC, broth microdilution; format: cell-based; conditions: Klebsiella pneumoniae, ATCC10031, read-out: MIC K. pneumoniae ATCC 10031
E. faecalis ATCC 29212 = experiment: MIC, broth microdilution; format: cell-based; conditions: Enterococcus faecalis, ATCC29212, read-out: MIC E. faecalis ATCC 29212
[6] = read-out: RA (residual activity) E. coli topo IV

Compound: Cc1[nH]c(C(=O)Nc2ccc(C(=O)NCC(=O)O)cc2N2CC[C@H](NC(=O)OC(C)(C)C)C2)c(Cl)c1Cl [Compound 8b, (S)-(3-(3-((tert-Butoxycarbonyl)amino)pyrrolidin-1-yl)-4-(3,4-dichloro-5-methyl-1H-pyrrole-2-carboxamido)benzoyl)glycine]
IC50 (E. coli DNA gyrase): 196 nM

Compound: Cc1[nH]c(C(=O)Nc2ccc(C(=O)NCC(=O)O)cc2N2CC[C@@H](NC(=O)OC(C)(C)C)C2)c(Cl)c1Cl [Compound 8c, (R)-(3-(3-((tert-Butoxycarbonyl)amino)pyrrolidin-1-yl)-4-(3,4-dichloro-5-methyl-1H-pyrrole-2-carboxamido)benzoyl)glycine]
IC50 (E. coli DNA gyrase): 162 nM

Compound: CC(C)(C)OC(=O)N1CCN(c2cc(C(=O)NCC(=O)O)ccc2NC(=O)c2cc(Br)c(Br)[nH]2)CC1 [Compound 9a, (3-(4-(tert-Butoxycarbonyl)piperazin-1-yl)-4-(4,5-dibromo-1H-pyrrole-2-carboxamido)benzoyl)glycine]
IC50 (E. coli DNA gyrase): 362 nM

Compound: CC(C)(C)OC(=O)N[C@H]1CCN(c2cc(C(=O)NCC(=O)O)ccc2NC(=O)c2cc(Br)c(Br)[nH]2)C1 [Compound 9b, (S)-(3-(3-((tert-Butoxycarbonyl)amino)pyrrolidin-1-yl)-4-(4,5-dibromo-1H-pyrrole-2-carboxamido)benzoyl)glycine]
IC50 (E. coli DNA gyrase): 4110 nM

Compound: CC(C)(C)OC(=O)N[C@@H]1CCN(c2cc(C(=O)NCC(=O)O)ccc2NC(=O)c2cc(Br)c(Br)[nH]2)C1 [Compound 9c, (R)-(3-(3-((tert-Butoxycarbonyl)amino)pyrrolidin-1-yl)-4-(4,5-dibromo-1H-pyrrole-2-carboxamido)benzoyl)glycine]
IC50 (E. coli DNA gyrase): 5390 nM

Compound: Cc1[nH]c(C(=O)Nc2ccc(C(=O)NCC(=O)O)cc2N2CCNCC2)c(Cl)c1Cl [Compound 10a, 4-(5-((Carboxymethyl)carbamoyl)-2-(3,4-dichloro-5-methyl-1H-pyrrole-2-carboxamido)phenyl)piperazin-1-ium chloride]
remaining activity at 10 µM [1]: 78%
remaining activity at 1 µM (E. coli topoisomerase IV; [6]): 93%

Compound: Cc1[nH]c(C(=O)Nc2ccc(C(=O)NCC(=O)O)cc2N2CC[C@@H](N)C2)c(Cl)c1Cl [Compound 10c, (R)-1-(5-((Carboxymethyl)carbamoyl)-2-(3,4-dichloro-5-methyl-1H-pyrrole-2-carboxamido)phenyl)pyrrolidin-3-aminium chloride]
remaining activity at 40 µM [1]: 112%
IC50 (E. coli DNA gyrase): ~20 nM

Compound: O=C(O)CNC(=O)c1ccc(NC(=O)c2cc(Br)c(Br)[nH]2)c(N2CCNCC2)c1 [Compound 11a, 4-(5-((Carboxymethyl)carbamoyl)-2-(4,5-dibromo-1H-pyrrole-2-carboxamido)phenyl)piperazin-1-ium chloride]
remaining activity at 40 µM [1]: 100%

Compound: N[C@H]1CCN(c2cc(C(=O)NCC(=O)O)ccc2NC(=O)c2cc(Br)c(Br)[nH]2)C1 [Compound 11b, (S)-1-(5-((Carboxymethyl)carbamoyl)-2-(4,5-dibromo-1H-pyrrole-2-carboxamido)phenyl)pyrrolidin-3-aminium chloride]
IC50 (E. coli DNA gyrase): 235 nM

Compound: N[C@@H]1CCN(c2cc(C(=O)NCC(=O)O)ccc2NC(=O)c2cc(Br)c(Br)[nH]2)C1 [Compound 11c, (R)-1-(5-((Carboxymethyl)carbamoyl)-2-(4,5-dibromo-1H-pyrrole-2-carboxamido)phenyl)pyrrolidin-3-aminium chloride]
IC50 (E. coli DNA gyrase): 996 nM
remaining activity at 10 µM (E. coli topoisomerase IV; [6]): 75%

Compound: Cc1[nH]c(C(=O)Nc2ccc(C(=O)NCc3n[nH]c(=O)o3)cc2N2CCN(C(=O)OC(C)(C)C)CC2)c(Cl)c1Cl [Compound 13, tert-Butyl 4-(2-(3,4-dichloro-5-methyl-1H-pyrrole-2-carboxamido)-5-(((5-oxo-4,5-dihydro-1,3,4-oxadiazol-2-yl)methyl)carbamoyl)phenyl)piperazine-1-carboxylate]
MIC (S. aureus ATCC 29213): 1 µg/mL (≈ 1.68 µM)
IC50 (E. coli DNA gyrase): 483 nM

Compound: Cc1[nH]c(C(=O)Nc2ccc(C(=O)NCc3n[nH]c(=O)o3)cc2N2CCNCC2)c(Cl)c1Cl [Compound 14, 4-(2-(3,4-Dichloro-5-methyl-1H-pyrrole-2-carboxamido)-5-(((5-oxo-4,5-dihydro-1,3,4-oxadiazol-2-yl)methyl)carbamoyl)phenyl)piperazin-1-ium chloride]
remaining activity at 10 µM [1]: 111%
IC50 (E. coli DNA gyrase): ~20 nM

Compound: Cc1[nH]c(C(=O)Nc2ccc(C(=O)O)cc2N2CCC[C@H](NC(=O)OC(C)(C)C)C2)c(Cl)c1Cl [Compound 18c, (S)-3-(3-((tert-Butoxycarbonyl)amino)piperidin-1-yl)-4-(3,4-dichloro-5-methyl-1H-pyrrole-2-carboxamido)benzoic acid]
MIC (P. aeruginosa ATCC 27853): > 32 µg/mL
MIC (A. baumannii ATCC 19606): > 32 µg/mL
MIC (K. aerogenes ATCC 13408): > 32 µg/mL
MIC (E. coli ATCC 25922): > 32 µg/mL
remaining activity at 1 µM (E. coli DNA gyrase): 67%
MIC [2]: > 32 µg/mL

Compound: Cc1[nH]c(C(=O)Nc2ccc(C(=O)O)cc2N2CCCC(CNC(=O)OC(C)(C)C)C2)c(Cl)c1Cl (stereo not shown) [Compound 18i, 3-(3-(((tert-Butoxycarbonyl)amino)methyl)piperidin-1-yl)-4-(3,4-dichloro-5-methyl-1H-pyrrole-2-carboxamido)benzoic acid]
MIC (P. aeruginosa ATCC 27853): > 32 µg/mL
MIC (A. baumannii ATCC 19606): > 32 µg/mL
MIC (K. aerogenes ATCC 13408): > 32 µg/mL
MIC (E. coli ATCC 25922): > 32 µg/mL
remaining activity at 100 µM [1]: 128%
remaining activity at 0.1 µM (E. coli DNA gyrase): 89%
MIC [2]: > 32 µg/mL

Compound: COC(=O)c1ccc(NC(=O)c2[nH]c(C)c(Cl)c2Cl)c(N2CCCC(CN)C2)c1.Cl (stereo not shown) [Compound 19i, (1-(2-(3,4-Dichloro-5-methyl-1H-pyrrole-2-carboxamido)-5-(methoxycarbonyl)phenyl)piperidin-3-yl)methanaminium chloride]
MIC [3]: 1 µg/mL
MIC (P. aeruginosa ATCC 27853): > 32 µg/mL
MIC (A. baumannii ATCC 19606): 8 µg/mL
MIC (S. aureus ATCC 29213): 8 µg/mL
MIC (K. aerogenes ATCC 13408): > 32 µg/mL
MIC [4]: 2 µg/mL
MIC (E. coli ATCC 25922): 4 µg/mL
MIC [5]: > 64 µg/mL
IC50 (E. coli DNA gyrase): 14.2 nM
MIC (A. baumannii ATCC 17978): 8 µg/mL
MIC [2]: > 32 µg/mL
IC50 (E. coli topoisomerase IV): 533 nM
MIC (K. pneumoniae ATCC 10031): 8 µg/mL

Compound: Cc1[nH]c(C(=O)N(Cc2ccccc2)c2ccc(-c3n[nH]c(=O)o3)cc2)c(Cl)c1Cl [Compound 33, N-Benzyl-3,4-dichloro-5-methyl-N-(4-(5-oxo-4,5-dihydro-1,3,4-oxadiazol-2-yl)phenyl)-1H-pyrrole-2-carboxamide]
remaining activity at 100 µM [1]: 92%
remaining activity at 1 µM (E. coli DNA gyrase): 81%

Now from value to compound:

RA (residual activity) E. coli gyrase (E. coli DNA gyrase; at 10 μM compound): 98% (10 μM)
RA (residual activity) E. coli topo IV (E. coli topoisomerase IV; at 1 μM compound): 103% (1 μM)
Compound: 4,5-Dibromo-N-(2-morpholino-4-(5-oxo-4,5-dihydro-1,3,4-oxadiazol-2-yl)phenyl)-1H-pyrrole-2-carboxamide [Compound 27a]

remaining activity at 100 µM [1]: 100%
IC50 (E. coli DNA gyrase): 59 nM
remaining activity at 1 µM (E. coli topoisomerase IV; [6]): 104%
Compound: Cc1[nH]c(C(=O)Nc2ccc(-c3n[nH]c(=O)o3)cc2N2CCN(C(=O)OC(C)(C)C)CC2)c(Cl)c1Cl [Compound 22a, tert-Butyl 4-(2-(3,4-dichloro-5-methyl-1H-pyrrole-2-carboxamido)-5-(5-oxo-4,5-dihydro-1,3,4-oxadiazol-2-yl)phenyl)piperazine-1-carboxylate]

MIC (P. aeruginosa ATCC 27853): > 32 µg/mL
MIC (A. baumannii ATCC 19606): > 32 µg/mL
MIC (S. aureus ATCC 29213): 32 µg/mL (≈ 58 µM)
MIC (K. aerogenes ATCC 13408): > 32 µg/mL
MIC (E. coli ATCC 25922): > 32 µg/mL
remaining activity at 0.1 µM (E. coli DNA gyrase): 90%
MIC [2]: > 32 µg/mL
Compound: Cc1[nH]c(C(=O)Nc2ccc(-c3n[nH]c(=O)o3)cc2N2CCC[C@H](NC(=O)OC(C)(C)C)C2)c(Cl)c1Cl [Compound 22c, tert-Butyl (S)-(1-(2-(3,4-dichloro-5-methyl-1H-pyrrole-2-carboxamido)-5-(5-oxo-4,5-dihydro-1,3,4-oxadiazol-2-yl)phenyl)piperidin-3-yl)carbamate]

MIC (E. faecalis ATCC 29212): 1 µg/mL (≈ 2.21 µM)
MIC (P. aeruginosa ATCC 27853): > 64 µg/mL
MIC (S. aureus ATCC 29213): > 64 µg/mL
MIC [4]: > 64 µg/mL
MIC (E. coli ATCC 25922): > 64 µg/mL
remaining activity at 100 µM [1]: 98%
MIC [5]: > 64 µg/mL
MIC (A. baumannii ATCC 17978): > 64 µg/mL
MIC (K. pneumoniae ATCC 10031): > 64 µg/mL
Compound: Cc1[nH]c(C(=O)Nc2ccc(-c3n[nH]c(=O)o3)cc2N2CCOC(C)C2)c(Cl)c1Cl (stereo not shown) [Compound 22f, 3,4-Dichloro-5-methyl-N-(2-(2-methylmorpholino)-4-(5-oxo-4,5-dihydro-1,3,4-oxadiazol-2-yl)phenyl)-1H-pyrrole-2-carboxamide]

remaining activity at 100 µM [1]: 97%
Compound: Cc1[nH]c(C(=O)Nc2ccc(-c3n[nH]c(=O)o3)cc2N2CC(C)OC(C)C2)c(Cl)c1Cl (stereo not shown) [Compound 22g, 3,4-Dichloro-N-(2-(2,6-dimethylmorpholino)-4-(5-oxo-4,5-dihydro-1,3,4-oxadiazol-2-yl)phenyl)-5-methyl-1H-pyrrole-2-carboxamide]

Source: publication PMC11378028 (RSC Advances, 2024)
